{"source": "patent US8017786B2", "about": "“Substituted β-phenyl-α-hydroxy-propanoic acid, synthesis method and use thereof” (Northwest University, priority 2006, dated 2011)", "format_in_all_cases": "in vivo, rat", "key": {"PPARγ": {"tested_on": "PPARγ", "assay": "Immunohistochemistry protein expression in I/R myocardial tissue: PPARγ", "settings": "1 mL/kg, 5 days; ischemia 30 min, reperfusion 2 h", "procedure": "(§1) 52 SD rats having a body weight of 220±20 g were randomly divided into model control group, salviannic acid injection group (in 1 mL/kg), and group of bornyl β-(3,4-dihydroxylphenyl)-α-hydroxylpropionate ester at a small, middle and large dose (ip 5, 15, 35 mg/kg). The rats of the normal group and the model control group were ip administered with equal-volume of physiologic saline. The rats of all groups were administered for consecutive 5 days. When the rats were administered for the last time, they were simultaneously anesthetized with 1.5% pentobarbital sodium (ip 45 mg/kg), then a catheter was inserted into the right carotid artery, and connected via a transducer to an eight-channeled physiological recorder. Tracheal cannula was performed, and the ventilation rate was maintained at 60 times/min. The chest was opened, a 6/0 suture was used to form a loop at a site 1˜2 mm from the root of the anterior descending coronary artery, and a plastic pipe was introduced through the loop, then the loop was tightened up. The change of electrocardiogram was observed. An increase or decrease of ST indicated the success of ligation. The color of the myocardial tissue below the ligation suture became darker. 30 minutes later, the plastic pipe was pulled out to allow coronary artery blood flowing again and cause hyperemia of local tissue during reperfusion. For the groups subjected to ischemia for 30 min and reperfusion for 30 min, the myocardial infarction areas were recorded before the test, after ischemia for 1 min and 30 min, and after reperfusion for 30 min; for the groups subjected to ischemia for 30 min and reperfusion for 2 h, cardiac tissue samples were taken and fixed using 10% formalin, embedded with paraffin, serially sliced into sections with a thickness of 4 μm, and separately subjected to immunohistochemistry tests; the rats of the sham operation group were subjected only to the introduction of suture but their coronary arteries were not ligated.\nStandard immunohistochemistry ABC and SP methods were employed for staining. Bax: anti-rabbit polyclonal antibody (Santa CruzBio. Inc.) at a dilution of 1:200; […]: anti-rabbit polyclonal antibody (TBD Tianjin Biotechnological Center). At a dilution of […]; caspase-3: anti-rabbit polyclonal antibody (Normarkers Fromont, Calif.), at a dilution of 1:200; MMP-2: anti-murine monoclonal antibody (NormarkersFromont, Calif.) at a dilution of 1:200; PPARγ: anti-caprine polyclonal antibody (Santa Cruz Bio. Inc.), at a dilution of 1:500. The specific procedures were performed in accordance with the instructions of the ABC and SP kits, DAB was used for color development, and neutral resin was used for mounting. PBS was used instead of the first antibody as a negative control. […]"}, "MMP-2": {"tested_on": "MMP-2", "assay": "Immunohistochemistry protein expression in I/R myocardial tissue: MMP-2", "settings": "1 mL/kg, 5 days; ischemia 30 min, reperfusion 2 h", "procedure": "as §1\n(§2) Standard immunohistochemistry ABC and SP methods were employed for staining. Bax: anti-rabbit polyclonal antibody (Santa CruzBio. Inc.) at a dilution of 1:200; […]: anti-rabbit polyclonal antibody (TBD Tianjin Biotechnological Center). At a dilution of […]; caspase-3: anti-rabbit polyclonal antibody (Normarkers Fromont, Calif.), at a dilution of 1:200; MMP-2: anti-murine monoclonal antibody (NormarkersFromont, Calif.) at a dilution of 1:200; PPARγ: anti-caprine polyclonal antibody (Santa Cruz Bio. Inc.), at a dilution of 1:500. The specific procedures were performed in accordance with the instructions of the ABC and SP kits, DAB was used for color development, and neutral resin was used for mounting. PBS was used instead of the first antibody as a negative control. Cells with positive expression of the test polypeptides were of brown-yellow color, with MMP-2 protein being present in acytoplasm, Bcl-2 expressed in nuclear membrane and cytoplasm, Bax mainly in cytoplasm and partially in nucleus, and caspase-3 mainly in nucleus and partially in cytoplasm. CMIAS image analysis system was used for random selection of fields of slices and automatic selection of sites for analysis, and statistic analysis was performed by using mean optical density values or integral optical density values of the obtained myocardial tissue slices."}, "Bcl-2": {"tested_on": "Bcl-2", "assay": "Immunohistochemistry protein expression in I/R myocardial tissue: Bcl-2", "settings": "1 mL/kg, 5 days; ischemia 30 min, reperfusion 2 h", "procedure": "as §1, §2"}, "[1]": {"tested_on": "rats with cardiac ischemia reperfusion (I/R) injury", "assay": "Myocardial infarction areas caused by cardiac muscle I/R", "settings": "1 mL/kg, 5 days; ischemia 30 min, reperfusion 30 min", "procedure": "as §1\nAfter the rats were subjected to ischemia and reperfusion for 30 minutes, their anterior descending coronaries were ligated again, then they were sacrificed, their hearts were removed promptly, and 0.5 mL of 1% evans blue was injected into heart chambers via aorta to distinguish the ischemic regions and the non-ischemic regions. After the heart atrium and right ventricle were cut-off, the heart was refrigerated at −20° C. for 30 min, then placed in a tailor-made slice groove, and cut along the long axis to form 2 mm slices. The slices were immersed in 1% TTC phosphoric acid buffer solution (pH7.4), and incubated at 37° C. for 30 min to distinguish risky regions and necrotic regions. Then the slices were fixed with 10% formaldehyde for 24 h to enhance staining color for contrast photography. After the above treatment, the myocardial tissue was divided into: normal myocardia in blue, ischemic myocardia in light red, and necrotic myocardion in gray. A computer image analysis software was used to calculate the percentage of the area of the infarct myocardial region (nec) based on the area of the risky myocardial region (aar, i.e., ischemic myocardia, including ischemic infarct region and ischemic non-infarct region) (nec/aar), and the percentage of the area of the infarct myocardial region based on the whole area of the myocardia (nec/lv) to indicate the degree of infarct, as well as the percentage of the area of the risky myocardia based on the area of the left ventricle (aar/lv)."}, "Bax": {"tested_on": "Bax", "assay": "Immunohistochemistry protein expression in I/R myocardial tissue: Bax", "settings": "1 mL/kg, 5 days; ischemia 30 min, reperfusion 2 h", "procedure": "as §1, §2"}, "[2]": {"tested_on": "rats with middle cerebral artery occlusion", "assay": "Cerebral microcirculatory blood flow in rats with middle cerebral artery occlusion", "settings": "1 mL/kg ip", "procedure": "60 SD rats with a body weight of 220±20 g were randomly divided into normal control group, model control group, salvianic acid injection group (ip. 1 mL/kg), and group of bornyl β-(3,4-dihydroxylphenyl)-α-hydroxylpropionate ester at a small, middle and large dose respectively (ip. 5, 15, and 35 mg/kg). The rats of normal group and model group were administered with equal-volume of physiologic saline by ip. The rats were anesthetized by intraperitoneal injection of 1% pentobarbital sodium at an amount of 40 mg/kg, then placed at supine position, head fixed, and cut skin along cervical middle line. Trachea cannula, was inserted into the rats and they were allowed to spontaneous respire. Right common jugular vein and common carotid artery were isolated and a suture was introduced for later use. Animals were fixed on a rat stereotaxic apparatus, a cranial window with a size of 6×8 mm was opened at the right temple with a dental drill, after hemostasis, cerebral dura mater was cut open with scissors to expose cerebral pia mater. The window was covered and sealed with glass and dental cement, and the laser probe of a laser-doppler microcirculatory blood flow meter was fixed on the cranial window. Then the animals were fixed at lateral position, the right common carotid artery was lifted, ligated at the proximal part and carefully cut with scissors, a nylon suture having a diameter of about 0.3 mm was introduced into the artery. The distance between the artery cut and the paropia of the rats was marked before the suture was introduced. […] When the suture arrived at middle cerebral artery, an abrupt decrease of the microcirculatory blood flow would be observed. After the observation of a decrease in the microcirculatory blood flow, the suture was further penetrated by about 1 mm, and the distal end of the cut and the suture in the artery were ligated securely. Spare suture was cut-off. After the end of the test, it was checked whether the nylon suture blocked the initiation site of the middle cerebral artery, and the data of any animal whose artery was not blocked were cancelled. The animals of the control group were not treated. After the cranial window was prepared, the probe of J I2200 type laser-doppler microcirculatory blood flow meter was fixed at the cranial window, and the probe was maintained without displacement and rotation during the whole test. The microcirculatory blood flows before ligation and 5, 15, 30, 45 and 60 min after ligation were recorded, and the data of the animals in the drug-treatment groups were recorded at the same time points. The mean microcirculatory blood flow observed within 1 min at each time point was designated as the microcirculatory blood flow of the respective time point."}, "caspase-3": {"tested_on": "caspase-3", "assay": "Immunohistochemistry protein expression in I/R myocardial tissue: caspase-3", "settings": "1 mL/kg, 5 days; ischemia 30 min, reperfusion 2 h", "procedure": "as §1, §2"}}, "data": [{"smiles": "O=C(O)C(O)Cc1ccc(O)c(O)c1", "note": "(stereo not drawn) [Salvianic acid, β-(3,4-dihydroxyphenyl)-α-hydroxyl-propionic acid, reference compound]", "values": [{"measurement": "PPARγ protein expression, OD value", "setting": "PPARγ", "value": "0.34 ± 0.08"}, {"measurement": "MMP-2 protein expression, OD value", "setting": "MMP-2", "value": "0.12 ± 0.05"}, {"measurement": "Bcl-2 protein expression, OD value", "setting": "Bcl-2", "value": "0.18 ± 0.04"}, {"measurement": "aar/lv", "setting": "[1]", "value": "50.21 ± 7.10", "unit": "%"}, {"measurement": "nec/aar", "setting": "[1]", "value": "49.87 ± 7.83", "unit": "%"}, {"measurement": "nec/lv", "setting": "[1]", "value": "41.41 ± 5.49", "unit": "%"}, {"measurement": "Bax protein expression, OD value", "setting": "Bax", "value": "0.08 ± 0.02"}, {"measurement": "Microcirculatory blood flow", "setting": "[2]; 5 min after ligation", "value": "10.8 ± 3.6", "unit": "mL"}, {"measurement": "Microcirculatory blood flow", "setting": "[2]; 15 min after ligation", "value": "20.1 ± 6.9", "unit": "mL"}, {"measurement": "Microcirculatory blood flow", "setting": "[2]; 30 min after ligation", "value": "31.2 ± 9.5", "unit": "mL"}, {"measurement": "Microcirculatory blood flow", "setting": "[2]; 45 min after ligation", "value": "33.0 ± 6.8", "unit": "mL"}, {"measurement": "Microcirculatory blood flow", "setting": "[2]; 60 min after ligation", "value": "29.4 ± 6.9", "unit": "mL"}, {"measurement": "Caspase-3 protein expression, OD value", "setting": "caspase-3", "value": "0.21 ± 0.12"}]}]}
